What all share (test): growth of human tumour cells (NCI), 48 h
For assay [1], the system named is HS 578T breast.
In assay [2] the test system is RXF 393 renal.
The subject of assay [3] is IGROV1 ovarian.
Assay [4] has as its system SW-620 colon.
The test system of assay [5] is KM12 colon.
The subject of assay [6] is CAKI-1 renal.
The subject of assay [7] is BT-549 breast.
Assay [8] deals with PC-3 prostate.
Assay [9] relates to NCI-H226 lung.
Assay [10] relates to ACHN renal.
Assay [11] concerns DU-145 prostate.

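Five compound concentrations were applied to cells in 96-well plates for 48 hours; endpoints were derived by simple linear interpolation of the resulting dose-response curve. TGI: concentration producing complete growth inhibition.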 Where only a bound is given, the exact number is not on record here.

With `CCCCC(=O)Oc1ccc2c(C)cc(=O)oc2c1`, the TGI in assay [1], in assay [2], in assay [3], in assay [4], in assay [5] and in [6] was over 100 µM throughout. Also, the TGI in [7], in assay [8], in assay [9], in assay [10] and in assay [11] was over 100 µM each time.

On to `COc1cc2c(cc1OCc1ccccc1)NC(=S)[C@@H]1CCCN1C2=S`, for which the TGI in assay [1], in assay [2], in [3], in [4], in assay [5] and in assay [6] was over 100 µM throughout. Also, the TGI in assay [7], in [8], in [9], in assay [10] and in [11] was over 100 µM throughout.

Regarding `Cc1ccc(S(=O)(=O)Oc2nc3ccccc3nc2N(S(=O)(=O)c2ccc(C)cc2)S(=O)(=O)c2ccc(C)cc2)cc1`, the TGI in assay [1], in assay [2], in assay [3], in assay [4], in assay [5] and in assay [6] was over 100 µM in each case. The TGI in assay [7], in assay [8], in [9], in [10] and in [11] was over 100 µM throughout.

Turning to `CCc1c(Cc2cc(C)cc(C)c2)n2c(nc1=O)SCC2CBr` (centres undefined), the TGI in [1], in assay [2], in assay [3], in assay [4], in assay [5] and in assay [6] was over 50 µM throughout. For the same compound, the TGI in [7], in assay [8], in assay [9], in assay [10] and in assay [11] was over 50 µM each time.

Take `COc1cc2c(cc1OC)C(N)CC2=O` (centres undefined): the TGI in [1], in assay [2], in assay [3], in assay [4], in assay [5] and in assay [6] was over 100 µM each time. Moreover, the TGI in assay [7], in assay [8], in assay [9], in assay [10] and in assay [11] was over 100 µM in each case.

For `N=C(N)SCc1cccc2c(=O)cc(-c3ccccc3)oc12`, the TGI in assay [1] is 45.4 µM; in assay [2], 19.5 µM; in assay [3], 30.2 µM; in [4] it was over 39.3 µM; in assay [5], 27.3 µM; in assay [6], 11.3 µM. The TGI in [7] stood at 28.2 µM; in assay [8], 17.3 µM; in assay [9], 58 µM; in [10], 15.5 µM; in [11] it was 16.2 µM.

Regarding `C=C(Cl)C(=C)CCC(Cl)C(C)C` (centres undefined), the TGI in assay [1], in [2], in assay [3], in [4], in assay [5] and in assay [6] was over 100 µM each time. Further, the TGI in assay [7], in assay [8], in assay [9], in assay [10] and in assay [11] was over 100 µM in each case.

Turning to `COc1cc2c(cc1O)[C@@H]1Cc3c(cc(OC)c(OC)c3Oc3cc4c(cc3OC)CCN(C)[C@@H]4Cc3ccc(O)cc3)[C@H](C2)N1C`, the TGI is over 100 µM in assay [1]; 37.4 µM in assay [2]; over 100 µM in [3]; over 100 µM in assay [4]; over 100 µM in assay [5]; over 100 µM in [6]. The TGI in [7] is 96.9 µM; in [8], over 100 µM; in assay [9] it was over 100 µM; in assay [10] it was over 100 µM; in assay [11], over 100 µM.

In the case of `NC(=Nc1ccc(O)cc1)S(=O)O`, the TGI in [1], in [2], in assay [3], in assay [4], in assay [5] and in assay [6] was over 100 µM in each case. For the same compound, the TGI in [7], in assay [8], in [9], in [10] and in assay [11] was over 100 µM each time.

For `COC(=O)c1ccccc1/C=C1\Cc2cc(C)c(C)cc2C1=O`, the TGI in assay [1], in [2], in assay [3], in assay [4], in [5] and in assay [6] was over 100 µM throughout. Besides, the TGI in [7], in assay [8], in assay [9], in assay [10] and in assay [11] was over 100 µM throughout.

On to `COC(=O)[C@@H]1C[C@@H]2c3ccccc3N(S(=O)(=O)c3ccccc3)[C@@H]2N1C(=O)OC`, for which the TGI in [1], in [2], in assay [3], in assay [4], in [5] and in assay [6] was over 100 µM each time. Moreover, the TGI in [7], in assay [8], in assay [9], in assay [10] and in [11] was over 100 µM each time.

In the case of `Cc1ccc(/C=C/C(=O)c2cc(CN(C)C)c(O)c(CN(C)C)c2)cc1`, the TGI was 86.7 µM in [1]; 55 µM in assay [2]; over 100 µM in assay [3]; 38.2 µM in assay [4]; 25.2 µM in assay [5]; 50.3 µM in assay [6]. Moreover, the TGI in assay [7] was 35.4 µM; in assay [8], 36.8 µM; in assay [9], 59.5 µM; in assay [10] it was 90.8 µM; in assay [11], over 100 µM.

Take `CC1(C)CC(=O)c2c(nc(SSc3nc4c(c(-c5ccccc5)c3C#N)C(=O)CC(C)(C)C4)c(C#N)c2-c2ccccc2)C1`: the TGI in [1], in assay [2], in assay [3], in [4], in [5] and in [6] was over 10 µM in each case. Also, the TGI in assay [7], in assay [8], in assay [9], in assay [10] and in assay [11] was over 10 µM throughout.

For the compound `OC1CN2Cc3cc4c(cc3[C@]13C=C[C@@H](O)CC23)OCO4` (some centres undefined), the TGI in assay [1] was over 100 µM; in assay [2] it was 58.6 µM; in assay [3] it was over 100 µM; in [4], over 100 µM; in [5], over 100 µM; in assay [6] it was over 100 µM. Moreover, the TGI in assay [7] was over 100 µM; in [8], over 100 µM; in [9] it was over 100 µM; in assay [10], over 100 µM; in assay [11] it was 71.9 µM.

Values taken from PubChem BioAssay (NCI).
